The text below walks through data of patent publication US9550756B2, “Pyridazinone compounds as phosphodiesterase inhibitors and methods of treating disorders” (Takeda Pharmaceutical Company Limited, priority 2009, dated 2017).

Structures are written as SMILES.

One data set has as its system Male ICR mice. Kind of data set: Improvement of MK-801-induced prepulse inhibition (PPI) deficits. Format: in vivo. As to conditions: 0.3 mg/kg, MK-801 0.3 mg/kg s.c., FIG. 3. The text has this: Male ICR mice were supplied by CLEA Japan, Inc (Japan). After arrival to the vivarium, animals were allowed a minimum of 1 week for acclimation. They were housed under a 12:12-h light/dark cycle in a temperature- and humidity-controlled laboratory and allowed food and water ad libitum. The care and use of the animals and the experimental protocols used in this research were approved by the Experimental Animal Care and Use Committee of Takeda Pharmaceutical Company, Ltd (Osaka, Japan).
The compounds were suspended in 0.5% methylcellulose in saline or distilled water, and administered by intraperitoneally (i.p.) or orally (p.o.), respectively. Methamphetamine (Dainippon Sumitomo Pharma Co., Ltd.) and MK-801 (Sigma-Aldrich, St Louis, Mo.) were dissolved in saline, and administered subcutaneously (s.c.). […]
PPI is a measure of sensorimotor gating and is one of a few neuropsychological measures in which humans and rodents can be evaluated in a similar fashion (Psychopharmacology (Berl) 2001, vol. 156: 117-154). We evaluated whether compound could reverse PPI deficits induced by MK-801 using male ICR mice. […] Placement of mice inside the cylinders allowed the whole-body startle responses induced by the acoustic stimuli to be measured via the transduction of movement into analog signals by a piezoelectric unit attached to the platform. […]
With `Cc1nc2n(c(=O)c1CCN1CCC(c3noc4cc(F)ccc34)CC1)CCCC2` [Risperidone], the “MK-801-induced PPI deficits” value is recorded as “significantly reversed”.

System in a further data set: not given
Test: not given
Details: not given
For orientation: melting point means the temperature of the solid-liquid transition. Take `O=c1ccn(-c2cccc(C(F)(F)F)c2)nc1-c1ccnn1-c1ccc(Cl)cc1` [Example 3, 3-[1-(4-Chlorophenyl)-1H-pyrazol-5-yl]-1-[3-(trifluoromethyl)phenyl]pyridazin-4(1H)-one]: the melting point lay within 166 to 167 °C.

For `O=c1ccn(-c2ccncc2)nc1-c1ccnn1-c1ccccc1` [Example 31, 3-(1-Phenyl-1H-pyrazol-5-yl)-1-pyridin-4-ylpyridazin-4(1H)-one], the melting point lay within 202 to 203 °C.

On to `CC(C)n1nccc1-c1nn(-c2cccc(C(F)(F)F)c2)ccc1=O` [Example 33, 3-[1-(1-Methylethyl)-1H-pyrazol-5-yl]-1-[3-(trifluoromethyl)phenyl]pyridazin-4(1H)-one], for which the melting point was 183 to 184 °C.

Consider `CC(C)Cn1nccc1-c1nn(-c2cccc(C(F)(F)F)c2)ccc1=O` [Example 34, 3-[1-(2-Methylpropyl)-1H-pyrazol-5-yl]-1-[3-(trifluoromethyl)phenyl]pyridazin-4(1H)-one], for which the melting point is 120 to 121 °C.

`O=c1ccn(-c2cccc(C(F)(F)F)c2)nc1-c1ccnn1-c1ccccn1` [Example 35, 3-(1-Pyridin-2-yl-1H-pyrazol-5-yl)-1-[3-(trifluoromethyl)phenyl]pyridazin-4(1H)-one] displayed a melting point of 189 to 190 °C.

Turning to `O=c1ccn(-c2cccc(Oc3nc4ccccc4[nH]3)c2)nc1-c1ccnn1-c1ccccc1` [Example 37, 1-[3-(1H-Benzimidazol-2-yloxy)phenyl]-3-(1-phenyl-1H-pyrazol-5-yl)pyridazin-4(1H)-one], the melting point is 149 to 150 °C.

`O=c1ccn(-c2cccc(C(F)(F)F)c2)nc1-c1ncnn1-c1ccccc1` [Example 42, 3-(1-Phenyl-1H-1,2,4-triazol-5-yl)-1-[3-(trifluoromethyl)phenyl]pyridazin-4(1H)-one] had a melting point of 167 to 168 °C.

`O=c1c(OC(F)F)cn(-c2cccc(C(F)(F)F)c2)nc1-c1ccnn1-c1ccccc1` [Example 62, 5-(Difluoromethoxy)-3-(1-phenyl-1H-pyrazol-5-yl)-1-[3-(trifluoromethyl)phenyl]pyridazin-4(1H)-one] returned a melting point of 132 to 134 °C.

As to `O=c1c(O)cn(-c2ccccc2F)nc1-c1ccnn1-c1ccccc1` [Example 63, 1-(2-Fluorophenyl)-5-hydroxy-3-(1-phenyl-1H-pyrazol-5-yl)pyridazin-4(1H)-one], the melting point was in the range of 218 to 220 °C.

In turn, `CC(C)n1cc(-c2nn(-c3cccc(C(F)(F)F)c3)ccc2=O)c(-c2ccccc2)n1` [Example 77, 3-[1-(1-Methylethyl)-3-phenyl-1H-pyrazol-4-yl]-1-[3-(trifluoromethyl)phenyl]pyridazin-4(1H)-one] came in with a melting point of 138 to 140 °C.
